Results: patent publication US20250136570A1 (Tango Therapeutics, Inc., priority 2021, published 2025)

Assays:
Recombinant HDAC1 = Recombinant HDAC1 (Homo sapiens (Human), UniProt Q13547); experiment: HDAC1 inhibition, Fluor de Lys fluorescent enzyme assay; format: biochemical; conditions: 3 hours pre-incubation at room temp; 6 nM enzyme; 16 μM Fluor de Lys substrate; duplicate
How it was run: (§1)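 Enzyme (HDAC1 6 nM, HDAC3/NCor2 1.2 nM final) pre-incubated with compound 3 h at ~22 °C in Tris pH 8 buffer with 0.01% BSA. Reaction run 1 h with 16 μM Fluor de Lys substrate and stopped with TSA-containing developer. Fluorescence read at Ex 360/Em 460; IC50 from an occupancy equation with Hill coefficient, in duplicate.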

HDAC3/NCor2 = HDAC3/NCor2 (Homo sapiens (Human), UniProt O15379); experiment: HDAC3 inhibition, Fluor de Lys fluorescent enzyme assay; format: biochemical; conditions: 3 hours pre-incubation at room temp; 1.2 nM enzyme; 16 μM Fluor de Lys substrate; duplicate
How it was run: as §1

Recombinant HDAC1, sequence (Q13547 whole entry): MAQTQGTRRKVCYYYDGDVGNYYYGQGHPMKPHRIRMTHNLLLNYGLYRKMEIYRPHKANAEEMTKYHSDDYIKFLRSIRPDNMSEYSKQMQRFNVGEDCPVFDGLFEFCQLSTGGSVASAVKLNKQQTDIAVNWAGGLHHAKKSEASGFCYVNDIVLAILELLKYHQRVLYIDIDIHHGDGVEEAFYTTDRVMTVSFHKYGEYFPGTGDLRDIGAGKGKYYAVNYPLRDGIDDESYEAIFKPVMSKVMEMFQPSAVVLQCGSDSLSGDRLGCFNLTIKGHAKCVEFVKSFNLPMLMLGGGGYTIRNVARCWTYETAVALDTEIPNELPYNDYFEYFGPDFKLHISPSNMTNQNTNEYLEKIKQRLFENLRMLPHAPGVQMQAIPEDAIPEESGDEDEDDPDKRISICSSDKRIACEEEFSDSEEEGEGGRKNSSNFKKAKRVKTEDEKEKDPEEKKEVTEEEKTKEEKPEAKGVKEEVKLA
HDAC3/NCor2, sequence (O15379 whole entry): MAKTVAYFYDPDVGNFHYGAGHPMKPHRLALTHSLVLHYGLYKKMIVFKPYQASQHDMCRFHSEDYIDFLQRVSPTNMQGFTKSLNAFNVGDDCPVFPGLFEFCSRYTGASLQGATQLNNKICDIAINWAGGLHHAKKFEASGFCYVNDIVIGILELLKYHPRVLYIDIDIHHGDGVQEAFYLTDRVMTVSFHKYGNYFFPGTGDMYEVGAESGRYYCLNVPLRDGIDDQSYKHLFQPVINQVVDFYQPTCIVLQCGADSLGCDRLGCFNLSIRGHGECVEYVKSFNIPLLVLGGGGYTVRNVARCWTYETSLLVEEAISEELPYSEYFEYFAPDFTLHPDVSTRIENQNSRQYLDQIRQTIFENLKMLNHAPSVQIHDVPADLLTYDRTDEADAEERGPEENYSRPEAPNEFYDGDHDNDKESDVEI
HDAC3/NCor2, sequence (Q9Y618 395-489 partner): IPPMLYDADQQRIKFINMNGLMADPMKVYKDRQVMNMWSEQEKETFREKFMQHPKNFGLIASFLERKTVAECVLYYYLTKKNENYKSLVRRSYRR

IC50 (Recombinant HDAC1) [µM]	IC50 (HDAC3/NCor2) [µM]	SMILES
< 0.1	> 2	CS(=N)(=O)c1ccc(C(=O)Nc2cc(-c3cccc(C(N)=O)c3)ccc2N)cc1 (stereo not shown) [Compound 180, 3-[4-amino-3-[[4-(methylsulfonimidoyl)benzoyl]amino]phenyl]benzamide]
< 0.1	0.5 to 2	N=[S@@](=O)(c1ccc(C(=O)Nc2cc(-c3ccc(F)cc3)ccc2N)cc1)C1CC1 (single isomer, unassigned) [Compound 146]
< 0.1	0.1 to 0.5	CS(=N)(=O)c1cc2ccc(C(=O)Nc3cc(-c4ccc(F)cc4)ccc3N)cc2s1 (stereo not shown) [Compound 236, N-[2-amino-5-(4-fluorophenyl)phenyl]-2-(methylsulfonimidoyl)benzothiophene-6-carboxamide]
< 0.1	0.5 to 2	Cc1ccc(S(=N)(=O)c2ccc(C(=O)Nc3cc(-c4ccc(F)cc4)ccc3N)cc2)nc1 (stereo not shown) [Compound 231, N-[2-amino-5-(4-fluorophenyl)phenyl]-4-[(5-methyl-2-pyridyl)sulfonimidoyl]benzamide]
< 0.1	0.5 to 2	N=S(=O)(c1ccc(C(=O)Nc2cc(-c3ccc(F)cc3)ccc2N)cc1)c1cnccc1C1CC1 (stereo not shown) [Compound 191, N-[2-amino-5-(4-fluorophenyl)phenyl]-4-[(4-cyclopropyl-3-pyridyl)sulfonimidoyl]benzamide]
< 0.1	0.5 to 2	N=S(=O)(c1ccc(C(=O)Nc2cc(-c3ccc(F)cc3)ccc2N)cc1)c1cncc(Cl)c1 (stereo not shown) [Compound 245, N-(4-amino-4′-fluoro-[1,1′-biphenyl]-3-yl)-4-(5-chloropyridine-3-sulfonimidoyl)benzamide]
< 0.1	0.5 to 2	N=S(=O)(c1ccc(C(=O)Nc2cc(-c3ccc(F)cc3)ccc2N)cc1)C1CC1 (racemic) [Compound 111, rac-N-[2-amino-5-(4-fluorophenyl)phenyl]-4-(cyclopropylsulfonimidoyl)benzamide]
< 0.1	0.1 to 0.5	CS(=N)(=O)c1ccc(C(=O)Nc2cc(-c3ccc(F)cc3)ccc2N)nn1 (stereo not shown) [Compound 159, N-[2-amino-5-(4-fluorophenyl)phenyl]-6-(methylsulfonimidoyl)pyridazine-3-carboxamide]
< 0.1	0.5 to 2	N=S(=O)(c1ccc(C(=O)Nc2cc(-c3ccc(F)cc3)ccc2N)cc1)c1ccc(=O)[nH]c1 (stereo not shown) [Compound 192, N-[2-amino-5-(4-fluorophenyl)phenyl]-4-[(6-oxo-1H-pyridin-3-yl)sulfonimidoyl]benzamide]
< 0.1	0.1 to 0.5	CS(=N)(=O)c1ccc(C(=O)Nc2cc(-c3ccc(F)cc3)ccc2N)s1 (stereo not shown) [Compound 161, N-[2-amino-5-(4-fluorophenyl)phenyl]-5-(methylsulfonimidoyl)thiophene-2-carboxamide]
< 0.1	0.5 to 2	CS(=N)(=O)c1ccc(C(=O)Nc2cc(-c3ccc(F)cc3)ccc2O)cc1 (stereo not shown) [Compound 130, N-[5-(4-fluorophenyl)-2-hydroxy-phenyl]-4-(methylsulfonimidoyl)benzamide]
< 0.1	0.5 to 2	CS(=N)(=O)c1ccc2oc(C(=O)Nc3cc(-c4ccc(F)cc4)ccc3N)cc2n1 (stereo not shown) [Compound 189, N-[2-amino-5-(4-fluorophenyl)phenyl]-5-(methylsulfonimidoyl)furo[3,2-b]pyridine-2-carboxamide]
< 0.1	0.1 to 0.5	CS(=N)(=O)c1ccc(C(=O)Nc2cc(-c3ccc(F)s3)ccc2N)nn1 (stereo not shown) [Compound 152, N-[2-amino-5-(5-fluoro-2-thienyl)phenyl]-6-(methylsulfonimidoyl)pyridazine-3-carboxamide]
< 0.1	> 2	N=S(=O)(c1ccc(C(=O)Nc2cc(-c3ccc(F)cc3)ccc2N)cc1)c1ccc(C(F)(F)F)cc1 (stereo not shown) [Compound 256, N-[2-amino-5-(4-fluorophenyl)phenyl]-4-[[4-(trifluoromethyl)phenyl]sulfonimidoyl]benzamide]
< 0.1	> 2	Cc1ccc(-c2ccc(N)c(NC(=O)c3ccc(S(C)(=N)=O)cc3)c2)s1 (stereo not shown) [Compound 139, N-[2-amino-5-(5-methyl-2-thienyl)phenyl]-4-(methylsulfonimidoyl)benzamide]
0.1 to 0.5	> 2	CS(=N)(=O)c1ccc(C(=O)Nc2cc(-c3ccc(F)c(F)c3)ccc2N)cc1 (stereo not shown) [Compound 147, N-[2-amino-5-(3,4-difluorophenyl)phenyl]-4-(methylsulfonimidoyl)benzamide]
0.1 to 0.5	0.5 to 2	CS(=N)(=O)c1ccc(C(=O)Nc2cc(-c3cccnc3)ccc2N)cc1 (stereo not shown) [Compound 107, N-[2-amino-5-(3-pyridyl)phenyl]-4-(methylsulfonimidoyl)benzamide]
< 0.1	> 2	COc1ncc(S(=N)(=O)c2ccc(C(=O)Nc3cc(-c4ccc(F)cc4)ccc3N)cc2)[nH]1 (stereo not shown) [Compound 252, N-[2-amino-5-(4-fluorophenyl)phenyl]-4-[(2-methoxy-1H-imidazol-5-yl)sulfonimidoyl]benzamide]

IC50 (Recombinant HDAC1) [µM]	IC50 (HDAC3/NCor2) [µM]	SMILES
< 0.1	0.5 to 2	CS(=N)(=O)c1coc2cc(C(=O)Nc3cc(-c4ccc(F)cc4)ccc3N)ccc12 (stereo not shown) [Compound 258, N-[2-amino-5-(4-fluorophenyl)phenyl]-3-(methylsulfonimidoyl)benzofuran-6-carboxamide]
< 0.1	0.5 to 2	CS(=N)(=O)c1cnc2cc(C(=O)Nc3cc(-c4ccc(F)cc4)ccc3N)sc2c1 (stereo not shown) [Compound 200, N-[2-amino-5-(4-fluorophenyl)phenyl]-6-(methylsulfonimidoyl)thieno[3,2-b]pyridine-2-carboxamide]
< 0.1	0.5 to 2	N=S(=O)(c1ccncc1)c1ccc(C(=O)Nc2cc(-c3ccc(F)cc3)ccc2N)cc1 (stereo not shown) [Compound 168, N-[2-amino-5-(4-fluorophenyl)phenyl]-4-(4-pyridylsulfonimidoyl)benzamide]
< 0.1	0.5 to 2	CS(=N)(=O)c1cc2cc(C(=O)Nc3cc(-c4ccc(F)cc4)ccc3N)ccc2o1 (stereo not shown) [Compound 248, N-[2-amino-5-(4-fluorophenyl)phenyl]-2-(methylsulfonimidoyl)benzofuran-5-carboxamide]
< 0.1	0.5 to 2	[2H]c1c([2H])c(-c2ccc(N)c(NC(=O)c3ccc(S(C)(=N)=O)cc3)c2)c([2H])c([2H])c1F (stereo not shown) [Compound 223, N-[2-amino-5-(2,3,5,6-tetradeutero-4-fluoro-phenyl)phenyl]-4-(methylsulfonimidoyl)benzamide]
< 0.1	0.5 to 2	CS(=N)(=O)c1ccc(C(=O)Nc2cc(-c3ccc(Cl)s3)ccc2N)cc1 (stereo not shown) [Compound 137, N-[2-amino-5-(5-chloro-2-thienyl)phenyl]-4-(methylsulfonimidoyl)benzamide]
< 0.1	0.5 to 2	Cc1ncc(S(=N)(=O)c2ccc(C(=O)Nc3cc(-c4ccc(F)cc4)ccc3N)cc2)cn1 (stereo not shown) [Compound 235, N-[2-amino-5-(4-fluorophenyl)phenyl]-4-[(2-methylpyrimidin-5-yl)sulfonimidoyl]benzamide]
0.1 to 0.5	> 2	N=S(=O)(c1ccc(C(=O)Nc2cc(-c3ccccn3)ccc2N)cc1)C1CC1 (stereo not shown) [Compound 120, N-[2-amino-5-(2-pyridyl)phenyl]-4-(cyclopropylsulfonimidoyl)benzamide]
< 0.1	0.5 to 2	CC(C)c1cncc(S(=N)(=O)c2ccc(C(=O)Nc3cc(-c4ccc(F)cc4)ccc3N)cc2)c1 (stereo not shown) [Compound 226, N-[2-amino-5-(4-fluorophenyl)phenyl]-4-[(5-isopropyl-3-pyridyl)sulfonimidoyl]benzamide]
< 0.1	0.1 to 0.5	N=S(=O)(c1ccc(C(=O)Nc2cc(-c3ccc(F)cc3)ccc2N)cc1)c1ccccc1F (stereo not shown) [Compound 197, N-[2-amino-5-(4-fluorophenyl)phenyl]-4-[(2-fluorophenyl)sulfonimidoyl]benzamide]
< 0.1	> 2	CS(=N)(=O)c1ccc(C(=O)Nc2cc(-c3cccnn3)ccc2N)cc1 (stereo not shown) [Compound 157, N-(2-amino-5-pyridazin-3-yl-phenyl)-4-(methylsulfonimidoyl)benzamide]
< 0.1	0.5 to 2	CCN=S(C)(=O)c1ccc(C(=O)Nc2cc(-c3ccc(F)cc3)ccc2N)cn1 (stereo not shown) [Compound 169, N-[2-amino-5-(4-fluorophenyl)phenyl]-6-(N-ethyl-S-methyl-sulfonimidoyl)pyridine-3-carboxamide]
< 0.1	0.5 to 2	Nc1ccc(-c2ccc(F)cc2)cc1NC(=O)c1ccc([S@@]2(=O)=NCCC2)cc1 (stereo in doubt) [Compound 185, N-[2-amino-5-(4-fluorophenyl)phenyl]-4-[rel-(1R)-1-oxo-4,5-dihydro-3H-isothiazol-1-yl]benzamide]
< 0.1	0.5 to 2	Cn1cncc1S(=N)(=O)c1ccc(C(=O)Nc2cc(-c3ccc(F)cc3)ccc2N)cc1 (stereo not shown) [Compound 242, N-[2-amino-5-(4-fluorophenyl)phenyl]-4-[(3-methylimidazol-4-yl)sulfonimidoyl]benzamide]
< 0.1	0.5 to 2	N=S(=O)(c1ccc(C(=O)Nc2cc(-c3ccc(F)cc3F)ccc2N)cc1)C1CC1 (stereo not shown) [Compound 118, N-[2-amino-5-(2,4-difluorophenyl)phenyl]-4-(cyclopropylsulfonimidoyl)benzamide]
< 0.1	0.5 to 2	N=[S@](=O)(c1ccc(C(=O)Nc2cc(-c3cccs3)ccc2N)cc1)C1CC1 (single isomer, unassigned) [Compound 114]
< 0.1	0.1 to 0.5	CS(=N)(=O)c1ccc2oc(C(=O)Nc3cc(-c4ccc(F)cc4)ccc3N)cc2c1 (stereo not shown) [Compound 171, N-(4-amino-4′-fluoro-[1,1′-biphenyl]-3-yl)-5-(S-methylsulfonimidoyl)benzofuran-2-carboxamide]
